Converted amounts (≈) assume the structure as drawn. Non-standard residues stand in square brackets, D forms with d. Residues, ends and D or L forms follow the SMILES beside them. Dip = N[C@H](C(=O)O)C(c1ccccc1)c1ccccc1
Assays:
MRSA (ATCC BAA-1556) = assay: microbe, parasite or virus in culture; assay type: cell-based, Methicillin-Resistant Staphylococcus aureus
Description: (§1) The antibacterial activity of all ten synthesized linear and cyclic peptides was evaluated against MRSA (ATCC BAA-1556), S. aureus (ATCC 29213), E. faecium (ATCC 700221), S. pneumoniae (ATCC 51938), E. faecalis (ATCC 29212), B. subtilis (ATCC-6633), K. pneumoniae (ATCC BAA-1705), P. aeruginosa (ATCC 27883), and E. coli (ATCC 25922). Meropenem and daptomycin were used as positive controls for this study. Certain peptides are marked as “NT” (not tested) against specific bacterial strains based on initial screening data. […] The MIC was determined by micro-broth dilution protocol, where the minimal concentrations were determined to be in wells with no visible bacterial growth.
(§2) All bacterial experiments were carried out in a laminar flow hood (Labconco, Kansas City, MO, USA). The bacterial strains were cultured following the guidelines set by the Clinical Laboratory Standards Institute (CLSI). Antibacterial assays were performed using a standard microtiter dilution method as described in previous studies. The minimum inhibitory concentration (MIC) refers to the lowest peptide concentration that inhibits bacterial growth in wells with no visible bacterial growth. MIC was determined by micro-broth dilution. Bacteria were cultured overnight in 6 mL of Luria Broth (LB). A stock solution of the peptide was prepared in water and DMSO, and a test compound solution with a concentration of 256 µg/mL was made in LB. Meropenem, with a solubility of 8 mg/mL, was prepared as a stock solution at 4 mg/500 µL. An aliquot of the overnight bacteria culture was diluted in normal saline (NS, 1 mL) until achieving a 0.5 McFarland turbidity (1.5 × 10^8 bacterial cell CFU/mL). A 0.5 McFarland compared solution (60 µL) was added to Mueller Hinton Broth (MH) 8940 µL to generate a 1/150 dilution. A 200 µL test compound solution was added to the first well of a 96-well plate, and the remaining wells (2–12) were filled with 100 µL of MH media using a multi-channel pipette from a sterile reservoir. A concentration of […] of the tested peptides was prepared from a stock solution of the samples for testing in Muller−Hinton broth MH media. Peptides stock solution was dissolved in 5% DMSO in water, and the final concentration of DMSO in the first well of assay plate was 2.5% DMSO/H2O and diluted across the assay plate.
(§3) A 100 µL sample from well 1 was pipetted into well 2, and the solution was mixed thoroughly by pipetting up and down. Next, 100 µL was transferred from well 2 to well 3, followed by thorough mixing. This 2-fold serial dilution process continued through well 11, with no additions made to well 12. The final 100 µL from well 11 was discarded. After completing the serial dilution, each well (1–12) contained 100 µL of solution. The bacterial culture in MH media was vortexed and transferred to a sterile reservoir, from which 100 µL was added to each well using a 12-channel pipette. (Note: The dilutions were further diluted upon adding the bacterial solution; for example, the concentration in well 1 started at […] after the addition of the bacterial culture.) The plates were incubated overnight at 37 °C for 24 h. All experiments were performed in triplicate and repeated twice, with controls consisting of bacteria in MH media and positive controls of daptomycin or meropenem.

S. aureus (ATCC 29213) = assay: microbe, parasite or virus in culture; assay type: cell-based, Staphylococcus aureus
Description: as §1, §2, §3

E. faecium (ATCC 700221) = assay: microbe, parasite or virus in culture; assay type: cell-based, Enterococcus faecium
Description: as §1, §2, §3

[1] = test system: S. pneumoniae (ATCC 51938); assay: microbe, parasite or virus in culture; assay type: cell-based, Streptococcus pneumoniae
Description: as §1, §2, §3

E. faecalis (ATCC 29212) = assay: microbe, parasite or virus in culture; assay type: cell-based, Enterococcus faecalis
Description: as §1, §2, §3

B. subtilis (ATCC-6633) = assay: microbe, parasite or virus in culture; assay type: cell-based, Bacillus subtilis
Description: as §1, §2, §3

[2] = test system: K. pneumoniae (ATCC BAA-1705); assay: microbe, parasite or virus in culture; assay type: cell-based, Klebsiella pneumoniae
Description: as §1, §2, §3

[3] = test system: P. aeruginosa (ATCC 27883); assay: microbe, parasite or virus in culture; assay type: cell-based, Pseudomonas aeruginosa
Description: as §1, §2, §3

E. coli (ATCC 25922) = assay: microbe, parasite or virus in culture; assay type: cell-based, Escherichia coli
Description: as §1, §2, §3

C. albicans (ATCC 60193) = assay: microbe, parasite or virus in culture; assay type: cell-based, Candida albicans; settings: ATCC 60193, 24 h
Description: (§4) The antifungal activity of all ten synthesized linear and cyclic peptides was evaluated against C. albicans (ATCC 60193), C. parapsilosis (ATCC 22019), and A. fumigatus (AF-293). Fluconazole and amphotericin B were used as positive controls for this study. The MIC was determined at concentrations in wells with no visible fungal growth.
(§5) In this study, C. albicans and C. parapsilosis were cultured on Yeast Peptone Dextrose (YPD) agar containing 1% w/v yeast extract, 2% w/v peptone, 2% w/v D-glucose, and 1.5% agar. A single colony from the agar was selected and cultured in Tryptone soy broth supplemented with 0.1% D-glucose, then incubated for 24 h at 37 °C. The cells were washed twice with PBS by centrifugation at 2000 RPM for 5 min. The pellet was resuspended in 5 mL of PBS, diluted in RPMI 1640 with L-glutamine, supplemented with 2% D-glucose, and the pH adjusted using HEPES buffer. The suspension was then incubated for 50 min at 35 °C to achieve a final cell concentration of 10^6 cells/mL.
(§6) Peptide concentrations of 50, 25, 12.5, 6.25, and 3.1 μg/mL were tested in triplicate and repeated twice. Each well of a 96-well plate was inoculated with the prepared inoculum suspension, which was diluted with RPMI media to a final volume of 200 μL per well. The control well received the same inoculum without any compound. The plates were incubated for 24 h at 37 °C. Fungal and microbial growth were visually observed in the control wells, and the minimum inhibitory concentration (MIC) was determined as the lowest concentration at which no growth was detected in the wells. Amphotericin B was used as a standard antifungal drug.

[4] = test system: C. parapsilosis (ATCC 22019); assay: microbe, parasite or virus in culture; assay type: cell-based, Candida parapsilosis; settings: ATCC 22019, 24 h
Description: as §4, §5, §6

MRSA = settings: previous work; cited from earlier work
Source text: We have previously reported the synthesis of [E4W4], [KR5], [F4R5], [Y4R4], and [R4W4] and tested them against bacterial pathogens.

Compound | MIC (MRSA (ATCC BAA-1556); ATCC BAA-1556, 24 h) [µM] | MIC (S. aureus (ATCC 29213); ATCC 29213, 24 h) [µM] | MIC (E. faecium (ATCC 700221); ATCC 700221, 24 h) [µM] | MIC ([1]; ATCC 51938, 24 h) [µM] | MIC (E. faecalis (ATCC 29212); ATCC 29212, 24 h) [µM] | MIC (B. subtilis (ATCC-6633); ATCC-6633, 24 h) [µM] | MIC ([2]; ATCC BAA-1705, 24 h) [µM] | MIC ([3]; ATCC 27883, 24 h) [µM] | MIC (E. coli (ATCC 25922); ATCC 25922, 24 h) [µM] | MIC (C. albicans (ATCC 60193)) [µM] | MIC [4] [µM] | other results
N=C(N)NCCC[C@H](NC(=O)[C@@H](NC(=O)[C@H](CCCNC(=N)N)NC(=O)[C@H](Cc1c[nH]c2ccccc12)NC(=O)[C@H](CCCNC(=N)N)NC(=O)[C@H](Cc1c[nH]c2ccccc12)NC(=O)[C@H](CCCNC(=N)N)NC(=O)[C@H](Cc1c[nH]c2ccccc12)NC(=O)[C@H](CCCNC(=N)N)NC(=O)[C@@H](N)Cc1c[nH]c2ccccc12)C(c1ccccc1)c1ccccc1)C(=O)O [((DipR)(WR)4)] (H-WRWRWRWR[Dip]R-OH) | 6.3 (≈ 11.1 µg/mL) | 6.3 (≈ 11.1 µg/mL) | 3.1 (≈ 5.48 µg/mL) | 0.78 (≈ 1.38 µg/mL) | 12.5 (≈ 22.1 µg/mL) | 3.1 (≈ 5.48 µg/mL) | 12.5 (≈ 22.1 µg/mL) | 25 (≈ 44.2 µg/mL) | 12.5 (≈ 22.1 µg/mL) | 28.2 (≈ 49.8 µg/mL) | 14.1 (≈ 24.9 µg/mL) | 
N=C(N)NCCC[C@H](NC(=O)[C@H](CCCNC(=N)N)NC(=O)[C@@H](NC(=O)[C@H](CCCNC(=N)N)NC(=O)[C@@H](NC(=O)[C@H](CCCNC(=N)N)NC(=O)[C@@H](NC(=O)[C@H](CCCNC(=N)N)NC(=O)[C@@H](N)C(c1ccccc1)c1ccccc1)C(c1ccccc1)c1ccccc1)C(c1ccccc1)c1ccccc1)C(c1ccccc1)c1ccccc1)C(=O)O [(DipR)4R] (H-[Dip]R[Dip]R[Dip]R[Dip]RR-OH) | 1.6 (≈ 2.71 µg/mL) | 1.6 (≈ 2.71 µg/mL) | 1.6 (≈ 2.71 µg/mL) | 0.39 (≈ 0.66 µg/mL) | 3.1 (≈ 5.25 µg/mL) | 1.6 (≈ 2.71 µg/mL) | 6.3 (≈ 10.7 µg/mL) | 12.5 (≈ 21.2 µg/mL) | 6.3 (≈ 10.7 µg/mL) | 7.4 (≈ 12.5 µg/mL) | 7.4 (≈ 12.5 µg/mL) | 
C[C@@H](O)[C@H]1C(=O)N2C(C(=O)O)=C(S[C@@H]3CN[C@H](C(=O)N(C)C)C3)[C@H](C)[C@H]12 [Meropenem, reference compound] |  |  |  |  |  |  |  |  |  |  |  | MIC (MRSA (ATCC BAA-1556); Staphylococcus aureus, micro-broth dilution, Mueller Hinton broth, 37 °C, 24 h, no visible growth, triplicate, repeated twice): 5.2 µM (≈ 1.99 µg/mL); MIC (S. aureus (ATCC 29213); Staphylococcus aureus, ATCC29213, micro-broth dilution, Mueller Hinton broth, 37 °C, 24 h, no visible growth, triplicate, repeated twice): 0.5 µM (≈ 0.192 µg/mL); MIC (E. faecium (ATCC 700221); Enterococcus faecium, ATCC700221, micro-broth dilution, Mueller Hinton broth, 37 °C, 24 h, no visible growth, triplicate, repeated twice): 83 µM (≈ 31.8 µg/mL); MIC ([1]; Streptococcus pneumoniae, ATCC51938, micro-broth dilution, Mueller Hinton broth, 37 °C, 24 h, no visible growth, triplicate, repeated twice): 0.6 µM (≈ 0.23 µg/mL); MIC (E. faecalis (ATCC 29212); Enterococcus faecalis, ATCC29212, micro-broth dilution, Mueller Hinton broth, 37 °C, 24 h, no visible growth, triplicate, repeated twice): 5.2 µM (≈ 1.99 µg/mL); MIC (B. subtilis (ATCC-6633); Bacillus subtilis, ATCC6633, micro-broth dilution, Mueller Hinton broth, 37 °C, 24 h, no visible growth, triplicate, repeated twice): 0.6 µM (≈ 0.23 µg/mL); MIC ([2]; Klebsiella pneumoniae, ATCCBAA1705, micro-broth dilution, Mueller Hinton broth, 37 °C, 24 h, no visible growth, triplicate, repeated twice, NA = Not active): 42 µM (≈ 16.1 µg/mL); MIC ([3]; Pseudomonas aeruginosa, ATCC27883, micro-broth dilution, Mueller Hinton broth, 37 °C, 24 h, no visible growth, triplicate, repeated twice, NA = Not active): 2.6 µM (≈ 0.997 µg/mL); MIC (E. coli (ATCC 25922); Escherichia coli, ATCC25922, micro-broth dilution, Mueller Hinton broth, 37 °C, 24 h, no visible growth, triplicate, repeated twice, NA = Not active): 2.6 µM (≈ 0.997 µg/mL)
[R4W4] |  |  |  |  |  |  |  |  |  |  |  | MIC against MRSA (MRSA): 2.67 mg/L
